Tests used:
[1] = test system: caspase 3, 8 and 9 in HLE cells; assay: Protein extract based caspase 3/8/9 colorimetric assays; type: cell-based, human; settings: 24 hr
Protocol: FIG. 23. (A). […] HLE cells were grown in a T75 flask and treated with DBZIM for 24 hr. The cells were then lysed and cytoplasmic protein was collected for assaying caspase 8, 9 and 3 using kits from Biovision. The data was normalized against the vehicle control. (B). […] HLE cells were treated by DBZIM of 1.5 mM for 24 hr. Cytosolic and mitochondria protein fractions were collected using a kit from Biovision. 15 μg of each protein was resolved in 4-12% gradient PAGE-SDS gel. The target proteins were recognized by antibody of cytochrome C, and visualized by the ECL method. The membrane was stripped and probed for the α-tubulin as the loading control for cytosolic fraction and Cox4 for mitochondria fraction.
Capspase 3/8/9 activities were determined using total protein extract as starting material (Biovision Inc., CA, USA). HLE cells were cultured in T75 flask and treated with DBZIM of various concentrations. Cytosolic protein extract was collected by pelleting and lysing the cells and centrifugation to remove the debris. Capspase 3, 8 and 9 activities were assayed using the same protein extract but adding the respective substrate. Absorbance readings were taken at 405 nm using Tecan Safire II plate reader. Results were expressed as relative caspase activity by normalizing to control cells without compound treatment.

[2] = test system: Bcl-2 and IAP protein expression in HepG2 cells; assay: Western blot of Bcl-2 and IAP family proteins; type: cell-based, human; settings: HepG2, 0-2.0 mM, 24 hr
Protocol: FIG. 24. DBZIM affected Bcl-2 and IAP protein expression. HepG2 cells were treated with DBZIM (0, 0.5, 1.0, 1.5 and 2.0 mM) for 24 hr. Total protein was collected using RIPA buffer. 15 μg of total protein was resolved in 4-12% gradient PAGE-SDS gel. The target proteins were recognized by respective antibodies, and visualized by the ECL method. The membrane was stripped and probed for the α-tubulin as the loading control.
Protein extracts were prepared by lysing cell pellet in RIPA buffer (Pierce, Ill., USA) for total protein extract, or in NE-PER reagent from Pierce (Pierce, Ill., USA) for nuclear and cytoplasmic fractions, or in a Kit from BioVision (CA, USA) for mitochondria and cytosol fractions. Protein content was quantified using BCA Kit (Pierce, Ill., USA). Fifteen micrograms of protein were resolved in 4-12% gradient SDS/polyacrylamide gel electrophoresis (PAGE) gel, and transferred to nitrocellular membrane. The membrane was then probed with primary antibodies against Bcl-XL, Bak, Bcl-2α, Bax (Lab Vision Corp., CA, USA), survivin, xIAP, cIAP (R&D systems Inc., MN, USA), c-Jun, c-Fos, JunB, JunD, Fra-1, Fra-2 (Santa Cruz Biotechnology, CA, USA) respectively, and detected by horseradish peroxidase-conjugated secondary antibody (Santa Cruz Biotechnology, CA, USA). Protein bands were recorded on X-ray film by reacting with ECL chemiluminescence reagents (Amersham Biosciences, NJ, USA). Alpha-tubulin (Abeam, UK) was used as the loading control for total protein, Tata binding protein (TBP) (Abeam, UK) was used as the loading control for nuclear protein, and Cox4 (Abcam, UK) was used as loading control for mitochondria protein.

MCF-7 = assay: Proliferation assay (MTS), breast cancer cell line; type: cell-based; settings: Homo sapiens, MCF7, 72 h; MCF-7 (breast cancer), determined at day 3
Protocol: Proliferation of Glioma cell lines: U87 MG and C6 under the treatment of DBZIM was examined using 3-(4,5-dimethylthiazol-2-yl)-5-(3-carboxymethoxyphenyl)-2-(4-sulfophenyl)-2H-tetrazolium (MTS) based proliferation assay kit (Promega, Wis., USA). MTS reagent was added to the control and treated cells (after 48 hr) directly and the absorbance signal was read at 490 nm using a Tecan Safire II plate reader.
The IC50 value (determined at day 3) was 50 μM for H1299 (lung cancer); 50 μM for MCF-7 (breast cancer), and 40 μM for AGS gastric cancer at day 3 (Table 3).

HepG2 cells = assay: Cell based caspase 3/7 and LDH assays, HepG2; parameters: species or system human; settings: HepG2, 6 hr
Protocol: FIG. 22. […] HLE or HepG2 cells were incubated with DBZIM of various concentrations for 6 hr, and assayed for caspase 3/7 activity and LDH releasing (expressed as % toxicity). DBZIM induced apoptosis as characterized by annexin V staining using flow cytometer in HLE (E) and HepG2 (F). Scatter plot and histogram gave the representative information on the cell population distribution while bar graphs quantified the percentage of apoptotic cells from the histogram. HLE and HepG2 cells were treated by DBZIM of various concentrations for 24 hr before harvesting for annexin V staining and flow cytometric analysis.
(§1) Capspase 3/7 activity and lactate dehydrogenase (LDH) release were measured by Fluorometric assays (Promega Corp., WI, USA). The HCC cells were cultured in 96-well plate and treated with DBZIM of various concentrations for 6 hr before assays. For caspase 3/7 assay, medium was removed and substrate buffer was added to lyse the cell and react with caspase 3/7 to give rise to fluorescence signal which was read at Ex=485 nm and Em=530 nm on a Tecan Safire II plate reader after 1 hr incubation. The caspase 3/7 activity of sample cells with the compound treatment was expressed as relative fold change after normalizing to the control cells. The LDH assay (indicative of membrane integrity) was performed using a Kit from Promega Corp according to manufactor's instructions.

C6 = assay: Caspase 3/7 activity in C6; type: cell-based, rat; settings: C6, 2.0 mM, 6 hr
Protocol: FIG. 30. DBZIM inhibited cell proliferation in glioma cell line C6 (A) and U87 MG (C) and induced caspase 3/7 activity in C6 (B) and U87 MG (D). C6 or U87 cells were incubated with DBZIM of various concentrations for 48 hr for proliferation assay and 6 hr for caspase 3/7 activation assay. Proliferation was measured using MTS kit from Promega and expressed as relative cell proliferation with control group was normalized to 1. Caspase 3/7 activity was quantified using a kit from Promega and also expressed as relative caspase 3/7 activity of treated groups over control group.
as §1

[3] = Stability in drinking water by NMR analysis; type: physicochemical; settings: room temperature

In the case of `[Br-].c1ccc(Cn2cc[n+](Cc3ccccc3)c2)cc1` [DBZIM, 1,3-bisbenzylimidazolium bromide], the “caspase 3 activity” value [1] is reported as “dose-dependently enhanced”, the “caspase 8 activity” value [1] is reported as “not affected” and the “caspase 9 activity” value [1] is reported as “dose-dependently enhanced”. The Bak protein [2] was “up-regulated”, the “Bcl-2α and Bax proteins” value [2] was “not affected” and the Bcl-XL protein [2] was “slightly down-regulated”. The survivin protein [2] was “significantly suppressed”, the “xIAP and cIAP proteins” value [2] was “not affected” and the IC50 (MCF-7) was 50 µM. The LDH release (HepG2 cells) was “least affected”, the “caspase 3/7 activity” value (HepG2 cells) was “enhanced” and the “elevation of caspase 3/7” value (C6) was 3 folds.

In the case of `CC(C)n1cc[n+](C(C)C)c1.F[B-](F)(F)F` [DPIM, 1,3-diisopropylimidazolium tetrafluoroborate], the stability in water [3] is reported as “stable in water at room temperature condition for at least two weeks”.
